# Measured values published in US4686229A, “1,4-dihydropyridines” (Bayer Aktiengesellschaft, priority 1984, dated 1987).
# Tested on: synthesis of PGI2
# Assay: Prostacyclin stimulation in whole blood (collagen-induced PGI2 formation, 6-keto-PGF1 alpha by radioimmunoassay)
# Type: cell-based
# Description: The 1,4-dihydropyridines to be used according to the invention also stimulate the synthesis of PGI2. In contrast to thromboxane, which has a vasoconstricting action and initiates platelet aggregation, PGI^2 has a vasodilating action and inhibits platelet aggregation.
# The formation of PGI2 can be induced in whole blood by collagen. The endoperoxides formed in platelets are probably converted into PGI2 by […]. The stable end product of the PGI2 conversion, 6-keto-PGF1 α, is determined radioimmunologically.
row,SMILES,Stimulation (%) (prostacyclin stimulation)
1,"CC1=C(C(=O)OCCCc2cccnc2)C(c2ccc(CO)cc2)C(C(=O)OCCCc2cccnc2)=C(C)N1 [Example 1, Di-3-(pyrid-3-yl)-propyl 1,4-dihydro-4-(4-hydroxymethylphenyl)-2,6-dimethylpyridine-3,5-dicarboxylate]",158%
2,"CC1=C(C(=O)OCCCc2cccnc2)CC(C(=O)OCCCc2cccnc2)=C(C)N1 [Example 4, Di-3-(pyrid-3-yl)-propyl 1,4-dihydro-2,6-dimethylpyridine-3,5-dicarboxylate]",~ 50%
3,"COC(=O)C1C(C(=O)OCCCc2cccnc2)=C(C)NC(C)=C1C(=O)OCCCc1cccnc1 [Example 5, 4-Methyl 3,5-di-3-(pyrid-3-yl)-propyl 1,4-dihydro-2,6-dimethyl-pyridine-3,4,5-tricarboxylate]",100%
4,"CC1=C(C(=O)OCCCc2cccnc2)C(c2ccc(C(=O)NCc3cccnc3)cc2)C(C(=O)OCCCc2cccnc2)=C(C)N1 [Example 10, Di-3-(pyrid-3-yl)-propyl 1,4-dihydro-2,6-dimethyl-4-[4-N-(pyrid-3-ylmethyl)-carbamoylphenyl]-pyridine-3,5-dicarboxylate]",~ 50%
5,"CC1=C(C(=O)OCCCc2cccnc2)C(c2ccc(C(=O)NCc3ccco3)cc2)C(C(=O)OCCCc2cccnc2)=C(C)N1 [Example 11, Di-3-(pyrid-3-yl)-propyl 4-[4-N-(2-furylmethyl)-carbamoylphenyl]-1,4-dihydro-2,6-dimethyl-pyridine-3,5-dicarboxylate]",~ 100%
